# System: moderate-to-severe chronic spontaneous urticaria (CSU)
# Assay: Phase 2 CSU study: urticaria activity score over 7 days (UAS7)
# Assay type: in vivo, human
# Parameters: key to UAS7 Median / UAS7 Change from baseline Median / UAS7 change from baseline, Q1 / UAS7 change from baseline, Q3 / UAS7 change from baseline, Max / UAS7 Change from baseline LS Mean (SE): UAS7 points; daily UAS score ranges 0–6 points/day, over 7 days
# Conditions: for UAS7 Change from baseline LS Mean (SE) / UAS7 Post-baseline Mean (SD) / UAS7 % Change difference for rilzabrutinib vs. placebo LS Mean (95% CI) / UAS7 % Change from baseline LS Mean (SE) / UAS7 Change difference for rilzabrutinib vs. placebo LS Mean (95% CI): ITT population, 400 mg TID; for Imputed non-responder n (%), UAS7 = 0 / Imputed non-responder n (%), UAS7 ≤6 / Non-responder n (%), UAS7 = 0 / Non-responder n (%), UAS7 ≤6 / OR for rilzabrutinib vs. placebo, UAS7 = 0 / OR for rilzabrutinib vs. placebo, UAS7 ≤6 / RRD (%) for rilzabrutinib vs. placebo, UAS7 = 0 / RRD (%) for rilzabrutinib vs. placebo, UAS7 ≤6 / Responder n (%), UAS7 = 0 / Responder n (%), UAS7 ≤6: ITT, 400 mg BID
# Excerpt: The study comprises a 12 week, randomized, double-blind, placebo-controlled, multi-center, dose-ranging efficacy and safety phase, followed by a 40 week open label extension (OLE) phase (see FIG. 1). The study consists of three phases and an optional OLE phase. […] Clinically, CSU is characterized by the spontaneous and recurrent appearance of pruritic hives. The proposed primary endpoints were the UAS7 at Week 12 in EU and EU reference countries and the ISS7 in the US. Regardless of where a participant was from, all assessments were the same. The UAS7 score is a composite score containing both the HSS7 and the ISS7. This allowed a global assessment of the two key components of urticaria: hives and itch. […] The UAS is a validated PRO measure. […] The daily UAS scores range from 0 to 6 point/day. […] Patients were to complete the UAS using the e-diary. […] The following secondary endpoints were to be analyzed using the same approach as for the primary endpoint: • Change from baseline in UAS7 at Week 4 • Change from baseline in UAS7 at Week 12 (for US and US reference countries) • Change from baseline in ISS7 at Week 12 (except US and US reference countries) • Change from baseline in HSS7 at Week 12 The following responder secondary endpoints were to be analyzed using the Cochran-Mantel-Haenszel test adjusted by region: • Proportion of participants with UAS7<6 at Week 12 • Proportion of participants with UAS7=0 at Week 12 Participants who received selected prohibited medications and/or rescue medications were to be considered as non-responders for time points after the medication usage. For other participants, all available data including those collected during the off-treatment period were to be used to determine the responder/non-responder status. Missing data were to be considered as non-responders.
smiles,measurement,setting,value
"CC(C)(C=C(C#N)C(=O)N1CCC[C@@H](n2nc(-c3ccc(Oc4ccccc4)cc3F)c3c(N)ncnc32)C1)N1CCN(C2COC2)CC1 [rilzabrutinib, (R)-2-[3-[4-amino-3-(2-fluoro-4-phenoxy-phenyl)pyrazolo[3,4-d]pyrimidin-1-yl]piperidine-1-carbonyl]-4-methyl-4-[4-(oxetan-3-yl)piperazin-1-yl]pent-2-enenitrile]",UAS7 Change from baseline LS Mean (SE),Week 5,−16.68
same,UAS7 Post-baseline Mean (SD),Week 5,12.72 (10.63)
same,UAS7 % Change difference for rilzabrutinib vs. placebo LS Mean (95% CI),Week 6,−27.22%
same,UAS7 % Change from baseline LS Mean (SE),Week 6,−54.12%
same,UAS7 Change difference for rilzabrutinib vs. placebo LS Mean (95% CI),Week 6,−7.54
same,UAS7 Change from baseline LS Mean (SE),Week 6,−16.68
same,UAS7 Post-baseline Mean (SD),Week 6,12.95 (11.42)
same,UAS7 % Change difference for rilzabrutinib vs. placebo LS Mean (95% CI),Week 7,−25.60%
same,UAS7 % Change from baseline LS Mean (SE),Week 7,−52.94%
same,UAS7 Change difference for rilzabrutinib vs. placebo LS Mean (95% CI),Week 7,−7.30
same,UAS7 Change from baseline LS Mean (SE),Week 7,−16.36
same,UAS7 Post-baseline Mean (SD),Week 7,13.31 (9.35)
same,UAS7 % Change difference for rilzabrutinib vs. placebo LS Mean (95% CI),Week 8,−22.78%
same,UAS7 % Change from baseline LS Mean (SE),Week 8,−54.62%
same,UAS7 Change difference for rilzabrutinib vs. placebo LS Mean (95% CI),Week 8,−6.17
same,UAS7 Change from baseline LS Mean (SE),Week 8,−16.52
same,UAS7 Post-baseline Mean (SD),Week 8,12.33 (10.15)
same,UAS7 % Change difference for rilzabrutinib vs. placebo LS Mean (95% CI),Week 9,−26.48%
same,UAS7 % Change from baseline LS Mean (SE),Week 9,−54.53%
same,UAS7 Change difference for rilzabrutinib vs. placebo LS Mean (95% CI),Week 9,−7.09
same,UAS7 Change from baseline LS Mean (SE),Week 9,−16.69
same,UAS7 Post-baseline Mean (SD),Week 9,11.76 (9.95)
same,UAS7 % Change difference for rilzabrutinib vs. placebo LS Mean (95% CI),Week 10,−23.22%
same,UAS7 % Change from baseline LS Mean (SE),Week 10,−56.75%
same,UAS7 Change difference for rilzabrutinib vs. placebo LS Mean (95% CI),Week 10,−6.30
same,UAS7 Change from baseline LS Mean (SE),Week 10,−17.20
same,UAS7 Post-baseline Mean (SD),Week 10,11.82 (10.15)
same,UAS7 % Change difference for rilzabrutinib vs. placebo LS Mean (95% CI),Week 11,−25.03%
same,UAS7 % Change from baseline LS Mean (SE),Week 11,−55.80%
same,UAS7 Change difference for rilzabrutinib vs. placebo LS Mean (95% CI),Week 11,−6.74
same,UAS7 Change from baseline LS Mean (SE),Week 11,−17.15
same,UAS7 Post-baseline Mean (SD),Week 11,12.17 (10.81)
same,"Imputed non-responder n (%), UAS7 = 0",Week 1,1 (2.4) n (%)
same,"Imputed non-responder n (%), UAS7 ≤6",Week 1,1 (2.4) n (%)
same,"Non-responder n (%), UAS7 = 0",Week 1,38 (92.7) n (%)
same,"Non-responder n (%), UAS7 ≤6",Week 1,34 (82.9) n (%)
same,"OR for rilzabrutinib vs. placebo, UAS7 = 0",Week 1,3.132
same,"OR for rilzabrutinib vs. placebo, UAS7 ≤6",Week 1,3.469
same,"RRD (%) for rilzabrutinib vs. placebo, UAS7 = 0",Week 1,4.7 %
same,"RRD (%) for rilzabrutinib vs. placebo, UAS7 ≤6",Week 1,10.3 %
same,"Responder n (%), UAS7 = 0",Week 1,3 (7.3) n (%)
same,"Responder n (%), UAS7 ≤6",Week 1,7 (17.1) n (%)
same,"Imputed non-responder n (%), UAS7 = 0",Week 2,2 (4.9) n (%)
same,"Imputed non-responder n (%), UAS7 ≤6",Week 2,2 (4.9) n (%)
same,"Non-responder n (%), UAS7 = 0",Week 2,38 (92.7) n (%)
same,"Non-responder n (%), UAS7 ≤6",Week 2,35 (85.4) n (%)
same,"OR for rilzabrutinib vs. placebo, UAS7 = 0",Week 2,2.893
same,"OR for rilzabrutinib vs. placebo, UAS7 ≤6",Week 2,2.834
same,"RRD (%) for rilzabrutinib vs. placebo, UAS7 = 0",Week 2,4.2 %
same,"RRD (%) for rilzabrutinib vs. placebo, UAS7 ≤6",Week 2,7.7 %
same,"Responder n (%), UAS7 = 0",Week 2,3 (7.3) n (%)
same,"Responder n (%), UAS7 ≤6",Week 2,6 (14.6) n (%)
same,"Imputed non-responder n (%), UAS7 = 0",Week 3,1 (2.4) n (%)
same,"Imputed non-responder n (%), UAS7 ≤6",Week 3,1 (2.4) n (%)
same,"Non-responder n (%), UAS7 = 0",Week 3,37 (90.2) n (%)
same,"Non-responder n (%), UAS7 ≤6",Week 3,31 (75.6) n (%)
same,"OR for rilzabrutinib vs. placebo, UAS7 = 0",Week 3,3.857
same,"OR for rilzabrutinib vs. placebo, UAS7 ≤6",Week 3,2.554
same,"RRD (%) for rilzabrutinib vs. placebo, UAS7 = 0",Week 3,6.3 %
same,"Responder n (%), UAS7 = 0",Week 3,4 (9.8) n (%)
same,"Responder n (%), UAS7 ≤6",Week 3,10 (24.4) n (%)
same,"Imputed non-responder n (%), UAS7 = 0",Week 4,4 (9.8) n (%)
same,"Imputed non-responder n (%), UAS7 ≤6",Week 4,4 (9.8) n (%)
same,"Non-responder n (%), UAS7 = 0",Week 4,38 (92.7) n (%)
same,"Non-responder n (%), UAS7 ≤6",Week 4,28 (68.3) n (%)
same,"OR for rilzabrutinib vs. placebo, UAS7 = 0",Week 4,1.278
